Test [1] is described as follows: Displacement of [3H]AMPA from AMPA receptor in rat cortical synaptosomes. Type of test: subcellular, Brain.
Test [2] is described as follows: Displacement of [3H]KA from KA receptor in rat cortical synaptosomes. Type of test: subcellular, Brain.
Test [3] addresses Glutamate NMDA receptor. Nature of the test: Displacement of [3H]CGP from NMDA receptor in rat cortical synaptosomes. The class given is subcellular, Brain.
The target of test [4] is T1, Glutamate receptor 1 (Rattus norvegicus, UniProt P19490). Nature of the test: Displacement of [3H]AMPA from rat recombinant GluR1 flop isoform expressed in baculovirus infected Sf9 cells.
The target of test [5] is T2, Glutamate receptor 2 (Rattus norvegicus, UniProt P19491). Nature of the test: Displacement of [3H]AMPA from rat recombinant GluR2(R) RNA-edited flop isoform expressed in baculovirus infected Sf9 cells.
The target of test [6] is T3, Glutamate receptor 3 (Rattus norvegicus, UniProt P19492). Nature of the test: Displacement of [3H]AMPA from rat recombinant GluR3 flop isoform expressed in baculovirus infected Sf9 cells.
Test [7] has as its target T4, Glutamate receptor 4 (Rattus norvegicus, UniProt P19493). Nature of the test: Displacement of [3H]AMPA from rat recombinant GluR4 flop isoform expressed in baculovirus infected Sf9 cells.
For test [8], the target named is T5, Glutamate receptor ionotropic, kainate 1 (Rattus norvegicus, UniProt P22756). Nature of the test: Displacement of [3H]SYM from rat recombinant GluR5(Q) RNA-edited isoform expressed in baculovirus infected Sf9 cells.
Test [9] addresses T6, Glutamate receptor ionotropic, kainate 2 (Rattus norvegicus, UniProt P42260). Nature of the test: Displacement of [3H]KA from rat recombinant GluR6(VCR) RNA-edited isoform expressed in baculovirus infected Sf9 cells.
Test [10] addresses Glutamate receptor ionotropic, kainate 3 (Rattus norvegicus, UniProt P42264). Nature of the test: Displacement of [3H]SYM from rat recombinant GluR7A expressed in baculovirus infected Sf9 cells.
Test [11] has as its target T1, Glutamate receptor 1. Nature of the test: Agonist activity at rat recombinant GluR1 flip isoform expressed in HEK293 cells assessed as increase in intracellular calcium level by Fluo-4/AM assay. The class given is functional, cell-based.
For test [12], the target named is Glutamate receptor 1 (Rattus norvegicus) (UniProt P19490). Nature of the test: Agonist activity at rat recombinant GluR1 flip isoform expressed in HEK293 cells assessed as increase in intracellular calcium level by Fluo-4/AM assay relative to glutamic acid. The class given is functional, cell-based.
In test [13] the target is T3, Glutamate receptor 3. Nature of the test: Agonist activity at rat recombinant GluR3 flip isomer expressed in HEK293 cells assessed as increase in intracellular calcium level by Fluo-4/AM assay. The class given is functional, cell-based.
The target of test [14] is Glutamate receptor 3 (Rattus norvegicus) (UniProt P19492). Nature of the test: Agonist activity at rat recombinant GluR3 flip isomer expressed in HEK293 cells assessed as increase in intracellular calcium level by Fluo-4/AM assay relative to glutamic acid. Type of test: functional, cell-based.
Test [15] concerns the target T4, Glutamate receptor 4. Nature of the test: Agonist activity at rat recombinant GluR4 flip isomer expressed in HEK293 cells assessed as increase in intracellular calcium level by Fluo-4/AM assay. Type of test: functional, cell-based.
Test [16] deals with Glutamate receptor 4 (Rattus norvegicus) (UniProt P19493). Nature of the test: Agonist activity at rat recombinant GluR4 flip isomer expressed in HEK293 cells assessed as increase in intracellular calcium level by Fluo-4/AM assay relative to glutamic acid. The class given is functional, cell-based.
The target of test [17] is T6, Glutamate receptor ionotropic, kainate 2. Nature of the test: Agonist activity at rat recombinant GluR6(Q) RNA-edited isoform expressed in HEK293 cells assessed as increase in intracellular calcium level by Fluo-4/AM assay. The class given is functional, cell-based.
The target of test [18] is T1, Glutamate receptor 1. Nature of the test: Agonist activity at ConA-treated rat GluR1 flip isoform expressed in Xenopus laevis oocytes assessed as glutamic acid-induced maximal current by two-electrode voltage clamp method. Type of test: functional, cell-based, Oocyte.
Test [19] addresses T5, Glutamate receptor ionotropic, kainate 1. Nature of the test: Agonist activity at ConA-treated rat GluR5(Q) RNA-edited isoform expressed in Xenopus laevis oocytes assessed as glutamic acid-induced maximal current by two-electrode voltage clamp method. Type of test: functional, cell-based, Oocyte.
In test [20] the target is Glutamate NMDA receptor; Grin1/Grin2a (Rattus norvegicus, UniProt P35439+Q00959). Nature of the test: Agonist activity at ConA-treated rat NR1/NR2A expressed in Xenopus laevis oocytes assessed as glycine-induced maximal current by two-electrode voltage clamp method. Type of test: functional, cell-based, Oocyte.
Test [21] has as its target T2, Glutamate receptor 2.
Description: Agonist activity at rat recombinant GluR2(Q) RNA-edited isoform expressed in HEK293 cells assessed as increase in intracellular calcium level by Fluo-4/AM assay
The target of test [22] is T5, Glutamate receptor ionotropic, kainate 1.
Description: Agonist activity at rat recombinant GluR5(Q) RNA-edited isoform expressed in HEK293 cells assessed as increase in intracellular calcium level by Fluo-4/AM assay
Test [23] deals with Glutamate NMDA receptor. Nature of the test: Displacement of […] from NMDA receptor in rat cortical synaptosomes. Type of test: subcellular, Brain.

A value given as a limit tells only on which side of the number the result lay.

Chain of Glutamate receptor 4 (Rattus norvegicus) (P19493 whole entry, canonical isoform): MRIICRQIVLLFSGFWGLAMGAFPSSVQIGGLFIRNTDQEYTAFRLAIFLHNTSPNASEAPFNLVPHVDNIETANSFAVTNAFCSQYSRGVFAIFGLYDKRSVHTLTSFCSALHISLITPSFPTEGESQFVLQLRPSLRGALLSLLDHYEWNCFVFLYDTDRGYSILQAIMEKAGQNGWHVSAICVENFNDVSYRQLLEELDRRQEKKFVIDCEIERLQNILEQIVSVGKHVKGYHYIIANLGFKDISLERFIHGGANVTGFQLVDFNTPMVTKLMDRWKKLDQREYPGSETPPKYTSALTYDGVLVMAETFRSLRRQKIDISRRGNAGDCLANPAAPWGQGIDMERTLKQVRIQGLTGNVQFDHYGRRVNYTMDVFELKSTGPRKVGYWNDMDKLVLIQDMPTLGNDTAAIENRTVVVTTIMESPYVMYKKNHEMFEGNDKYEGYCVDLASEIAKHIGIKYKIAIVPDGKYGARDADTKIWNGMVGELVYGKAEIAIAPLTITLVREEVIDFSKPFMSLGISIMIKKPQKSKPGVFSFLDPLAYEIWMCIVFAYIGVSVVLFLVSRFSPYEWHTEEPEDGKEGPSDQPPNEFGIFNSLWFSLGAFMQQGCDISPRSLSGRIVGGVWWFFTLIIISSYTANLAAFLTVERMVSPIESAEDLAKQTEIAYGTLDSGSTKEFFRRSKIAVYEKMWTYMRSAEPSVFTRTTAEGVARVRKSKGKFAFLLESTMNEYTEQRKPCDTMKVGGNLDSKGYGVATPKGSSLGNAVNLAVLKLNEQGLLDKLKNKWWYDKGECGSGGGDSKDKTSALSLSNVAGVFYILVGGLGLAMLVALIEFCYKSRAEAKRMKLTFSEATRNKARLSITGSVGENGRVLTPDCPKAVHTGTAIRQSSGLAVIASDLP
T4 sequence (P19493 whole entry, canonical isoform): as above
T2 sequence (P19491 whole entry, canonical isoform): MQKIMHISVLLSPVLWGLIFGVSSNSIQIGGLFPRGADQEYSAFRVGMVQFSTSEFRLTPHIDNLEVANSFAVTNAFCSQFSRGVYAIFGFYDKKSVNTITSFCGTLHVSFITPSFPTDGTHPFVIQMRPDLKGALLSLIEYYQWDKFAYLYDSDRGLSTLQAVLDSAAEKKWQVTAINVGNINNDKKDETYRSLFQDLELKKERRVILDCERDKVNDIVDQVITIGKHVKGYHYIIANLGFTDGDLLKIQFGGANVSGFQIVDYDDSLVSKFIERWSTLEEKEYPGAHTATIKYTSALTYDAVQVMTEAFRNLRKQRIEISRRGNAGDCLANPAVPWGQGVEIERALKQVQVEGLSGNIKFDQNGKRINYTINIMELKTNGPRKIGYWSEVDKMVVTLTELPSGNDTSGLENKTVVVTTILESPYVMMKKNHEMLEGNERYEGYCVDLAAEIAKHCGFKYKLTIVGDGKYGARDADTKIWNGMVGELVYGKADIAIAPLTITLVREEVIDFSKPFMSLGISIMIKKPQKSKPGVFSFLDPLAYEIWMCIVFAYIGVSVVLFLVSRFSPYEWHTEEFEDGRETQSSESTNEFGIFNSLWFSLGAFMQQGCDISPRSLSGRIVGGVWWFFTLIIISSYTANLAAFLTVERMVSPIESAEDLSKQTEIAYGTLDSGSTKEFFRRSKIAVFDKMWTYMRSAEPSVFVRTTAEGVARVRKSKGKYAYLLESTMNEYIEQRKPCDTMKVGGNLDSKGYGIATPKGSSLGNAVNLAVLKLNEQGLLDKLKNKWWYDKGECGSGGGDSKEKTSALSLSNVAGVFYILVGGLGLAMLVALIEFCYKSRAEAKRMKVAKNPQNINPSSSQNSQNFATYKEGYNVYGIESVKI
T5 sequence (P22756 whole entry, canonical isoform): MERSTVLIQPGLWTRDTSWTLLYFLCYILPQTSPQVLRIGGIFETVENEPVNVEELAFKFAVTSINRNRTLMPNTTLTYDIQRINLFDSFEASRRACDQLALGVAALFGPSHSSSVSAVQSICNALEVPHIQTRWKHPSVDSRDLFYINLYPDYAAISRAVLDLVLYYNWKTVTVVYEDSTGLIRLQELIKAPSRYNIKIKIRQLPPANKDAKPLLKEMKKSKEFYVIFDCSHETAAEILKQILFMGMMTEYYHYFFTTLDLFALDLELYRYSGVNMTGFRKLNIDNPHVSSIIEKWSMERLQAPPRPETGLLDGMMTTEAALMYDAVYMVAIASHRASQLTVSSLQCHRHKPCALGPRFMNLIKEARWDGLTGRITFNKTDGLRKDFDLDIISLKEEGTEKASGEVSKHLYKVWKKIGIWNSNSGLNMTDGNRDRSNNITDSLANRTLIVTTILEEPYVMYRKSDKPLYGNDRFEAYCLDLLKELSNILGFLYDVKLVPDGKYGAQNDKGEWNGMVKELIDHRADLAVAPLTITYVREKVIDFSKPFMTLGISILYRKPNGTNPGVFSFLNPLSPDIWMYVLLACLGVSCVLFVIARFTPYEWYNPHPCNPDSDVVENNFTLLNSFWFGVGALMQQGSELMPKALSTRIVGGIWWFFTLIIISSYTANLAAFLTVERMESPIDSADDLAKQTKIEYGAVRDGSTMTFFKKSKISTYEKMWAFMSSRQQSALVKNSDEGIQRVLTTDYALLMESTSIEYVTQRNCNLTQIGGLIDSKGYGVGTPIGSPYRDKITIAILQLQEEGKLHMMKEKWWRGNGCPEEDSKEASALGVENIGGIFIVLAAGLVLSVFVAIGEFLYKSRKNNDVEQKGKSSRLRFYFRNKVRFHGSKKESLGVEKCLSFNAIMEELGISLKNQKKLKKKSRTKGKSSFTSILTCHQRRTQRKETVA
T3 sequence (P19492 whole entry, canonical isoform): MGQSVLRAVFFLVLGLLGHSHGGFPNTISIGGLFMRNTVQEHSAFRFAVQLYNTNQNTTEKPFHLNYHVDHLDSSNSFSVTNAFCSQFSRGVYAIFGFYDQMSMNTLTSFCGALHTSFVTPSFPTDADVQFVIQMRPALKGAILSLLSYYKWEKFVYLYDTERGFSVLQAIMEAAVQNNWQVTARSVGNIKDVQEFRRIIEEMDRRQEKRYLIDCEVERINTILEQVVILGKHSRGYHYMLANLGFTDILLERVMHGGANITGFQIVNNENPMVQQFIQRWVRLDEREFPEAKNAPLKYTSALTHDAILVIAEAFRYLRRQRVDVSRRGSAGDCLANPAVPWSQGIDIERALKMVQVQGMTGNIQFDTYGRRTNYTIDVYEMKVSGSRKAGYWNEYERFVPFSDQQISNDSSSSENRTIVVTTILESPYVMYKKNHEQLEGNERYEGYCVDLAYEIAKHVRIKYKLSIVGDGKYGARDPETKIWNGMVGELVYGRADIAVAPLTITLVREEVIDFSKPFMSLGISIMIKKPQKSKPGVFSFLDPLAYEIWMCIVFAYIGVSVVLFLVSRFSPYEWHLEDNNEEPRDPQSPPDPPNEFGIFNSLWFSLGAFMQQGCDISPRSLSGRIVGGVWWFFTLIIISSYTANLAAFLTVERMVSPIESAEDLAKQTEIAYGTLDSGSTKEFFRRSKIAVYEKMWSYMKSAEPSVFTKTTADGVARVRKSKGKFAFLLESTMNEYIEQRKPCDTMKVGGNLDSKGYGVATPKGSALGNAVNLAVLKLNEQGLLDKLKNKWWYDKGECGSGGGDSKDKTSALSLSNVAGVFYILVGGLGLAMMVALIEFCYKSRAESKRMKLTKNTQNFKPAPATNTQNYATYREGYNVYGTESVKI
Chain of Glutamate receptor 3 (Rattus norvegicus) (P19492 whole entry): as the sequence (P19492 whole entry, canonical isoform) above
Chain of Glutamate receptor 1 (Rattus norvegicus) (P19490 whole entry, canonical isoform): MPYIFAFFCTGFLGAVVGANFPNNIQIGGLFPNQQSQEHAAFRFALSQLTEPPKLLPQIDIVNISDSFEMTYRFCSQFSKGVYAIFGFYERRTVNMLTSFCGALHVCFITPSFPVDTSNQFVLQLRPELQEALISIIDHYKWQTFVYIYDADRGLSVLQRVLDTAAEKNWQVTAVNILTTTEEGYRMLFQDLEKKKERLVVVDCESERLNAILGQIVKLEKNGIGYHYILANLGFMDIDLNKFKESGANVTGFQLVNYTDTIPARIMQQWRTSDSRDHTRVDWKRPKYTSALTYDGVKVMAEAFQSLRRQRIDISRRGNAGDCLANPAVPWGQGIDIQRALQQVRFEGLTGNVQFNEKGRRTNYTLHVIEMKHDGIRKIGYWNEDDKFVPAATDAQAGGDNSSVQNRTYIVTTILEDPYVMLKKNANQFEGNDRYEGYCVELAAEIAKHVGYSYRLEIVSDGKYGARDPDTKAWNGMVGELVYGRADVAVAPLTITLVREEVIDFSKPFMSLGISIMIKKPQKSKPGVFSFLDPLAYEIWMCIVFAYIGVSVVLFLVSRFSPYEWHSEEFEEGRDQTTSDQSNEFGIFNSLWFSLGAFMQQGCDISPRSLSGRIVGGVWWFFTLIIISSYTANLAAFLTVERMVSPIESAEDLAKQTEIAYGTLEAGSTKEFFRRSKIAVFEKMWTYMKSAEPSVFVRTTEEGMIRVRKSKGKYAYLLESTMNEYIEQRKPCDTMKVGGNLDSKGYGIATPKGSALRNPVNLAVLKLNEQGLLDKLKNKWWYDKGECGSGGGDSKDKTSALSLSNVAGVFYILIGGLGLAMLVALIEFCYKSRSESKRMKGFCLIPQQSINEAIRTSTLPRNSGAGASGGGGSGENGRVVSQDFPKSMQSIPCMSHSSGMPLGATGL
T1 sequence (P19490 whole entry, canonical isoform): as above

Turning to `CC1CCC=C(C[C@H](N)C(=O)O)c2c(O)noc21` (mixture of isomers), the results for the IC50 in test [1] and in test [2] were 9700 nM and 8.3 µM, respectively. Further, the Ki on Glutamate NMDA receptor [3] was more than 100 µM; on Glutamate receptor 1 [4], 1550 nM; on Glutamate receptor 2 [5] it was 6310 nM; on Glutamate receptor 3 [6], 1110 nM; at Glutamate receptor 4 [7], 2200 nM; in test [8], 5.08 nM. For the same molecule, the Ki in test [9] is more than 100 µM; in [10] it was 1380 nM. Besides, the EC50 on Glutamate receptor 1 [11] was 70 µM; at Glutamate receptor 3 [13] (read-out: EC50), 48 µM; on Glutamate receptor 3 [13] (read-out: pEC50 (converted)), 63.1 µM; at Glutamate receptor 4 [15] (read-out: EC50), 35 µM; at Glutamate receptor 4 [15] (read-out: pEC50 (converted)) it was 158 µM; in [17], more than 1 mM. Moreover, the EC50 is 70 µM on Glutamate receptor 1 [18]; 240 nM in [19]; more than 1 mM in test [20]; 160 µM on Glutamate receptor 2 [21]; 860 nM in test [22]. The Activity in test [12] was determined as 29%; in test [14], 46%; in test [16], 68%.

For `N[C@@H](CC1=CCCCc2onc(O)c21)C(=O)O`, the 50% inhibitory concentration (IC50) in test [1] worked out at 280 nM; in test [2] it was 1.6 µM. Further, the Ki on Glutamate NMDA receptor [3] was more than 100 µM; on Glutamate receptor 1 [4], 232 nM; on Glutamate receptor 2 [5], 175 nM; at Glutamate receptor 3 [6], 173 nM; on Glutamate receptor 4 [7] it was 202 nM. Besides, the EC50 at Glutamate receptor 1 [11] came out at 32 µM; on Glutamate receptor 3 [13] (read-out: EC50), 13 µM; on Glutamate receptor 4 [15] (read-out: EC50) it was 6.7 µM; on Glutamate receptor 1 [18] it was 4.5 µM; on Glutamate receptor 2 [21], 92 µM. Besides, the figures for the Activity in [12], in test [14] and in test [16] were 28%, 54% and 79%, respectively.

Turning to `CC(C)(C)c1onc(O)c1C[C@H](N)C(=O)O`, the IC50 in test [1] is 1800 nM; in [2], 23 µM. Besides, the figures for the Activity in test [12], in test [14] and in test [16] were 101%, 100% and 102%, respectively. Also, at Glutamate receptor 4 [15] (hek293, read-out: EC50), the EC50 came to 150 µM.

On to `Cc1onc(O)c1C[C@H](N)C(=O)O` [(S)-AMPA], for which the figures for the IC50 in test [1] and in test [2] were 39 nM and more than 100 µM, respectively.

In the case of `C=C(C)[C@H]1CN[C@H](C(=O)O)[C@H]1CC(=O)O` [KAINIC ACID], the Activity worked out at 18% in test [12], 45% in [14] and 55% in test [16]. At Glutamate receptor 4 [15] (read-out: EC50), the EC50 worked out at 47 µM.

Consider `CC(C)(C)c1o[nH]c(=O)c1C[C@H](N)C(=O)O`, for which the Ki at Glutamate NMDA receptor [23] is more than 100 µM; on Glutamate receptor 1 [4] it was 2780 nM; on Glutamate receptor 2 [5], 1660 nM; on Glutamate receptor 3 [6] it was 2040 nM; at Glutamate receptor 4 [7], 2140 nM. Besides, the EC50 was 730 µM on Glutamate receptor 1 [11], 630 µM on Glutamate receptor 3 [13] (read-out: EC50), 62 µM on Glutamate receptor 1 [18] and more than 1000 µM at Glutamate receptor 2 [21].

These data come from ChEMBL document CHEMBL1151943, “The glutamate receptor GluR5 agonist (S)-2-amino-3-(3-hydroxy-7,8-dihydro-6H-cyclohepta[d]isoxazol-4-yl)propionic acid and the 8-methyl analogue: synthesis, molecular pharmacology, and biostructural characterization” (J Med Chem, 2009).
